Results on eleven molecules are retold here after patent US20260295053A1, “COMPOUNDS FOR DEGRADATION AND INHIBITION OF KRAS (G12D) PROTEIN” (Shenzhen Ionova Life Science Co., Ltd., priority 2023, published 2026).

Assay [1] has as its target T1, KRAS (G12D) (Homo sapiens, UniProt P01116, G12D).
T1 construct: in-cell western with KRAS G12D antibody after 24 h
The assay is described as follows: KRAS (G12D) cellular degradation assay in AsPC-1 cells. The settings on record: 24 hours, antibody fluorescence (Odyssey CLX), DC50 half-maximal degradation concentration. The class given is cell-based. The method, boiled down:
(§1)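 Proliferation IC50 comes from CellTiter Glo luminescence after 6 days' exposure of AsPC-1 (3,500 cells/well) to 1:3 dilutions from […] to 1.5 nM. KRAS G12D DC50 derives from in-cell immunofluorescence normalised to β-actin after 24 h treatment of near-confluent AsPC-1 cells over the same range.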

Assay [2] concerns AsPC-1 cells. The assay is described as follows: AsPC-1 cell proliferation assay (CellTiter Glo). The class given is cell-based. The settings on record: 6 days. The method, boiled down:
as §1
On the technique in general: In ATP-based viability assays light output follows the ATP content of the culture.

T1 sequence (P01116 1-188 isoform P01116-2 G12D): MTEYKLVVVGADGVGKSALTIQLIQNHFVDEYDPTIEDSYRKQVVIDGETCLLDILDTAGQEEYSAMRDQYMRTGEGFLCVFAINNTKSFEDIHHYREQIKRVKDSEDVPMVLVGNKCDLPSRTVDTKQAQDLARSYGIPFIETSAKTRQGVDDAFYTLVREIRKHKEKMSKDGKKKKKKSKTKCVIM

Regarding `CCn1nccc1-c1ccc([C@H](CO)NC(=O)[C@@H]2C[C@@H](O)CN2C(=O)[C@H](C(C)C)n2cc(-c3ccc(COc4c(-c5c(C)c(F)cc6[nH]ncc56)c(C5CC5)cc5c(N(C)[C@H]6CCNC6)nc(OC[C@H](C)OC)nc45)cc3)nn2)c2c1CC2` [Example 169, (2S,4R)-1-((2S)-2-(4-(4-(((6-cyclopropyl-7-(6-fluoro-5-methyl-1H-indazol-4-yl)-2-((S)-2-methoxypropoxy)-4-(methyl((S)-pyrrolidin-3-yl)amino)quinazolin-8-yl)oxy)methyl)phenyl)-1H-1,2,3-triazol-1-yl)-3-methylbutanoyl)-N—((R)-1-(5-(1-ethyl-1H-pyrazol-5-yl)bicyclo[4.2.0]octa-1(6),2,4-trien-2-yl)-2-hydroxyethyl)-4-hydroxypyrrolidine-2-carboxamide], the DC50 (commonly the concentration giving 50% degradation) in assay [1] was below 10 nM. The IC50 – broadly, the concentration needed to halve the response being measured – in assay [2] (Homo sapiens, ASPC1, 144 h) was below 10 nM.

`CCn1nccc1-c1ccc([C@@H](NC(=O)[C@@H]2C[C@@H](O)CN2C(=O)[C@H](C(C)C)n2cc(-c3ccc(COc4c(-c5c(C)c(F)cc6[nH]ncc56)c(C5CC5)cc5c(N(C)[C@H]6CCNC6)nc(O[C@H]6C[C@H](OC)C6)nc45)cc3)nn2)[C@H](C)O)cc1` [Example 170, (2S,4R)-1-((2S)-2-(4-(4-(((6-cyclopropyl-7-(6-fluoro-5-methyl-1H-indazol-4-yl)-2-((1r,3S)-3-methoxycyclobutoxy)-4-(methyl((S)-pyrrolidin-3-yl)amino)quinazolin-8-yl)oxy)methyl)phenyl)-1H-1,2,3-triazol-1-yl)-3-methylbutanoyl)-N-((1R,2S)-1-(4-(1-ethyl-1H-pyrazol-5-yl)phenyl)-2-hydroxypropyl)-4-hydroxypyrrolidine-2-carboxamide] showed a DC50 in assay [1] below 10 nM. In assay [2] (Homo sapiens, ASPC1, 144 h), this molecule displayed an IC50 below 10 nM.

In assay [1], `CO[C@H]1C[C@H](Oc2nc(N(C)[C@H]3CCNC3)c3cc(C4CC4)c(-c4c(C)c(F)cc5[nH]ncc45)c(OCc4ccc(-c5cn([C@H](C(=O)N6C[C@H](O)C[C@H]6C(=O)N[C@H](c6ccc(-c7scnc7C)cc6)[C@H](C)O)C(C)C)nn5)cc4)c3n2)C1` [Example 171, (2S,4R)-1-((2S)-2-(4-(4-(((6-cyclopropyl-7-(6-fluoro-5-methyl-1H-indazol-4-yl)-2-((1r,3S)-3-methoxycyclobutoxy)-4-(methyl((S)-pyrrolidin-3-yl)amino)quinazolin-8-yl)oxy)methyl)phenyl)-1H-1,2,3-triazol-1-yl)-3-methylbutanoyl)-4-hydroxy-N-((1R,2S)-2-hydroxy-1-(4-(4-methylthiazol-5-yl)phenyl)propyl)pyrrolidine-2-carboxamide] registered a DC50 below 10 nM. The IC50 in assay [2] (Homo sapiens, ASPC1, 144 h) is below 10 nM.

`CCn1nccc1-c1ccc([C@@H](NC(=O)[C@@H]2C[C@@H](O)CN2C(=O)[C@H](C(C)C)n2cc(-c3ccc(COc4c(-c5c(C)c(F)cc6[nH]ncc56)c(C5CC5)cc5c(N(C)[C@H]6CCNC6)nc(O[C@H]6C[C@H](OC)C6)nc45)cc3)nn2)[C@H](C)O)c2c1CC2` [Example 173, (2S,4R)-1-((2S)-2-(4-(4-(((6-cyclopropyl-7-(6-fluoro-5-methyl-1H-indazol-4-yl)-2-((1r,3S)-3-methoxycyclobutoxy)-4-(methyl((S)-pyrrolidin-3-yl)amino)quinazolin-8-yl)oxy)methyl)phenyl)-1H-1,2,3-triazol-1-yl)-3-methylbutanoyl)-N-((1R,2S)-1-(5-(1-ethyl-1H-pyrazol-5-yl)bicyclo[4.2.0]octa-1(6),2,4-trien-2-yl)-2-hydroxypropyl)-4-hydroxypyrrolidine-2-carboxamide] gave a 50% degradation concentration (DC50) in assay [1] below 10 nM. This molecule also came in with an IC50 in assay [2] (Homo sapiens, ASPC1, 144 h) below 10 nM.

For `CNc1nc2ccc(C#C[C@H](CO)NC(=O)[C@@H]3C[C@@H](O)CN3C(=O)[C@H](C(C)C)n3cc(-c4ccc(COc5c(-c6c(C)c(F)cc7[nH]ncc67)c(C6CC6)cc6c(N7C[C@@H]8C[C@H]7CN8)nc(OC[C@H](C)OC)nc56)cc4)nn3)cc2s1` [Example 176, (2S,4R)-1-((2S)-2-(4-(4-(((4-((1S,4S)-2,5-diazabicyclo[2.2.1]heptan-2-yl)-6-cyclopropyl-7-(6-fluoro-5-methyl-1H-indazol-4-yl)-2-((S)-2-methoxypropoxy)quinazolin-8-yl)oxy)methyl)phenyl)-1H-1,2,3-triazol-1-yl)-3-methylbutanoyl)-4-hydroxy-N—((R)-1-hydroxy-4-(2-(methylamino)benzo[d]thiazol-6-yl)but-3-yn-2-yl)pyrrolidine-2-carboxamide], the DC50 in assay [1] was below 10 nM. This molecule also registered an IC50 in assay [2] (Homo sapiens, ASPC1, 144 h) below 10 nM.

`CCn1nccc1-c1ccc([C@H](CO)NC(=O)[C@@H]2C[C@@H](O)CN2C(=O)[C@H](C(C)C)n2cc(-c3ccc(COc4c(-c5c(C)c(F)cc6[nH]ncc56)c(C5CC5)cc5c(N6CCCCCC6)nc(OC[C@H](C)OC)nc45)cc3)nn2)cc1` [Example 177, (2S,4R)-1-((2S)-2-(4-(4-(((4-(azepan-1-yl)-6-cyclopropyl-7-(6-fluoro-5-methyl-1H-indazol-4-yl)-2-((S)-2-methoxypropoxy)quinazolin-8-yl)oxy)methyl)phenyl)-1H-1,2,3-triazol-1-yl)-3-methylbutanoyl)-N—((R)-1-(4-(1-ethyl-1H-pyrazol-5-yl)phenyl)-2-hydroxyethyl)-4-hydroxypyrrolidine-2-carboxamide] came in with a DC50 in assay [1] of 10 to 100 nM. In assay [2] (Homo sapiens, ASPC1, 144 h), this molecule yielded a half-maximal inhibitory concentration (IC50) of 10 to 100 nM.

Molecule `CCn1nccc1-c1ccc([C@H](CO)NC(=O)[C@@H]2C[C@@H](O)CN2C(=O)[C@H](C(C)C)n2cc(-c3ccc(COc4c(-c5c(C)c(F)cc6[nH]ncc56)c(C5CC5)cc5c(N6CCNCC[C@H]6C)nc(OC[C@H](C)OC)nc45)cc3)nn2)cc1` [Example 178, (2S,4R)-1-((2S)-2-(4-(4-(((6-cyclopropyl-7-(6-fluoro-5-methyl-1H-indazol-4-yl)-2-((S)-2-methoxypropoxy)-4-((R)-7-methyl-1,4-diazepan-1-yl)quinazolin-8-yl)oxy)methyl)phenyl)-1H-1,2,3-triazol-1-yl)-3-methylbutanoyl)-N—((R)-1-(4-(1-ethyl-1H-pyrazol-5-yl)phenyl)-2-hydroxyethyl)-4-hydroxypyrrolidine-2-carboxamide] came in with a DC50 in assay [1] below 10 nM. In assay [2], the IC50 was below 10 nM.

The molecule `CO[C@@H](C)COc1nc(N2CCCNCC2)c2cc(C3CC3)c(-c3c(C)c(F)cc4[nH]ncc34)c(OCc3ccc(-c4cn([C@H](C(=O)N5C[C@H](O)C[C@H]5C(=O)N[C@@H](CO)c5ccc(-c6scnc6C)cc5)C(C)C)nn4)cc3)c2n1` [Example 179, (2S,4R)-1-((2S)-2-(4-(4-(((6-cyclopropyl-4-(1,4-diazepan-1-yl)-7-(6-fluoro-5-methyl-1H-indazol-4-yl)-2-((S)-2-methoxypropoxy)quinazolin-8-yl)oxy)methyl)phenyl)-1H-1,2,3-triazol-1-yl)-3-methylbutanoyl)-4-hydroxy-N—((R)-2-hydroxy-1-(4-(4-methylthiazol-5-yl)phenyl)ethyl)pyrrolidine-2-carboxamide] gave a half-maximal degradation concentration (DC50) in assay [1] below 10 nM. In assay [2] (Homo sapiens, ASPC1, 144 h), the IC50 is below 10 nM.

`CCn1nccc1-c1ccc([C@H](CO)NC(=O)[C@@H]2C[C@@H](O)CN2C(=O)[C@H](C(C)C)n2cc(-c3ccc(COc4c(-c5c(C)c(F)cc6[nH]ncc56)c(C5CC5)cc5c(N6CCCOCC6)nc(OC[C@H](C)OC)nc45)cc3)nn2)cc1` [Example 180, (2S,4R)-1-((2S)-2-(4-(4-(((6-cyclopropyl-7-(6-fluoro-5-methyl-1H-indazol-4-yl)-2-((S)-2-methoxypropoxy)-4-(1,4-oxazepan-4-yl)quinazolin-8-yl)oxy)methyl)phenyl)-1H-1,2,3-triazol-1-yl)-3-methylbutanoyl)-N—((R)-1-(4-(1-ethyl-1H-pyrazol-5-yl)phenyl)-2-hydroxyethyl)-4-hydroxypyrrolidine-2-carboxamide] displayed a DC50 in assay [1] below 10 nM. The IC50 in assay [2] (Homo sapiens, ASPC1, 144 h) is below 10 nM.

In turn, `CCn1nccc1-c1ccc([C@H](CO)NC(=O)[C@@H]2C[C@@H](O)CN2C(=O)[C@H](C(C)C)n2cc(-c3ccc(COc4c(-c5c(C)c(F)cc6[nH]ncc56)c(C5CC5)cc5c(N6CCC=CCC6)nc(OC[C@H](C)OC)nc45)cc3)nn2)cc1` [Example 181, (2S,4R)-1-((2S)-2-(4-(4-(((6-cyclopropyl-7-(6-fluoro-5-methyl-1H-indazol-4-yl)-2-((S)-2-methoxypropoxy)-4-(2,3,6,7-tetrahydro-1H-azepin-1-yl)quinazolin-8-yl)oxy)methyl)phenyl)-1H-1,2,3-triazol-1-yl)-3-methylbutanoyl)-N—((R)-1-(4-(1-ethyl-1H-pyrazol-5-yl)phenyl)-2-hydroxyethyl)-4-hydroxypyrrolidine-2-carboxamide] returned a half-maximal degradation concentration (DC50) in assay [1] of 10 to 100 nM. Moreover, the half-inhibitory concentration (IC50) in assay [2] is 10 to 100 nM.

For the molecule `CCn1nccc1-c1ccc([C@@H](NC(=O)[C@@H]2C[C@@H](O)CN2C(=O)[C@H](C(C)C)n2cc(-c3ccc(COc4c(-c5c(C)c(F)cc6[nH]ncc56)c(C5CC5)cc5c(N6CCCNCC6)nc(OC[C@H](C)OC)nc45)cc3)nn2)[C@H](C)O)cc1` [Example 184, (2S,4R)-1-((2S)-2-(4-(4-(((6-cyclopropyl-4-(1,4-diazepan-1-yl)-7-(6-fluoro-5-methyl-1H-indazol-4-yl)-2-((S)-2-methoxypropoxy)quinazolin-8-yl)oxy)methyl)phenyl)-1H-1,2,3-triazol-1-yl)-3-methylbutanoyl)-N-((1R,2S)-1-(4-(1-ethyl-1H-pyrazol-5-yl)phenyl)-2-hydroxypropyl)-4-hydroxypyrrolidine-2-carboxamide], in assay [1], the DC50 was below 10 nM. The molecule further came in with a half-maximal inhibitory concentration (IC50) in assay [2] (Homo sapiens, ASPC1, 144 h) below 10 nM.
